The source made the active and inactive calls. The rule behind the calls is not given here.
Legend:
[1] = test system: Trypanosoma brucei rhodesiense; assay: Antitrypanosomal activity against Trypanosoma rhodesiense infected in mouse assessed as increase in survival time by 30 days at 5 mg/kg relative to control; format: functional
[2] = test system: Trypanosoma brucei rhodesiense; assay: Antitrypanosomal activity against Trypanosoma rhodesiense infected in mouse assessed as increase in survival time by 30 days at 20 mg/kg relative to control; format: functional
Plasmodium berghei = assay: Antimalarial activity against Plasmodium berghei infected in mouse; format: functional, organism-based
[3] = test system: Trypanosoma brucei rhodesiense; assay: Antitrypanosomal activity against Trypanosoma rhodesiense infected in mouse assessed as increase in survival time by 30 days at 160 mg/kg relative to control; format: functional
[4] = test system: Trypanosoma brucei rhodesiense; assay: Antitrypanosomal activity against Trypanosoma rhodesiense infected in mouse assessed as increase in survival time by 30 days at 40 mg/kg relative to control; format: functional
[5] = test system: Trypanosoma brucei rhodesiense; assay: Antitrypanosomal activity against Trypanosoma rhodesiense infected in mouse assessed as increase in survival time by 30 days at 2.5 mg/kg relative to control; format: functional
[6] = test system: Trypanosoma brucei rhodesiense; assay: Antitrypanosomal activity against Trypanosoma rhodesiense infected in mouse assessed as increase in survival time by 30 days at 10 mg/kg relative to control; format: functional
[7] = test system: Trypanosoma brucei rhodesiense; assay: Antitrypanosomal activity against Trypanosoma rhodesiense infected in mouse assessed as increase in survival time by 30 days at 80 mg/kg relative to control; format: functional
[8] = test system: Trypanosoma brucei rhodesiense; assay: Antitrypanosomal activity against Trypanosoma rhodesiense infected in mouse assessed as increase in survival time by 30 days at 640 mg/kg relative to control; format: functional
[9] = test system: Trypanosoma brucei rhodesiense; assay: Antitrypanosomal activity against Trypanosoma rhodesiense infected in mouse assessed as increase in survival time by 30 days at 320 mg/kg relative to control; format: functional
Mus musculus [10] = assay: Acute toxicity in mouse infected with Trypanosoma rhodesiense assessed as death at 320 mg/kg; format: organism-based; parameters: dose 320 mg/kg; details: in vivo
Mus musculus [11] = assay: Acute toxicity in mouse infected with Trypanosoma rhodesiense assessed as death at 640 mg/kg; format: organism-based; parameters: dose 640 mg/kg; details: in vivo
[12] = test system: Trypanosoma brucei rhodesiense; assay: Antitrypanosomal activity against Trypanosoma rhodesiense infected in mouse assessed as increase in mean survival time at 80 mg/kg relative to control; format: functional
[13] = test system: Trypanosoma brucei rhodesiense; assay: Antitrypanosomal activity against Trypanosoma rhodesiense infected in mouse assessed as increase in mean survival time at 40 mg/kg relative to control; format: functional
[14] = test system: Trypanosoma brucei rhodesiense; assay: Antitrypanosomal activity against Trypanosoma rhodesiense infected in mouse assessed as increase in mean survival time at 20 mg/kg relative to control; format: functional
[15] = test system: Trypanosoma brucei rhodesiense; assay: Antitrypanosomal activity against Trypanosoma rhodesiense infected in mouse assessed as increase in mean survival time at 160 mg/kg relative to control; format: functional

## Cl.Cl.N=C(N)c1ccc(-c2ccc(-c3ccc(C(=N)N)cc3)s2)cc1
[1]
  MST: 4 days
[2]
  MST: 5 days
Plasmodium berghei
  Activity: inactive
[3]
  MST: 5 days
[4]
  MST: 5 days
[5]
  MST: 3 days
[6]
  MST: 5 days
[7]
  MST: 5 days

## N=C(N)c1ccc(/C=C/c2ccc(C(=N)N)cc2)cc1 [STILBAMIDINE]
[1]
  MST: 5 days
[2]
  MST: 5 days
[3]
  MST: 5 days
[4]
  MST: 5 days
[5]
  MST: 5 days
[6]
  MST: 5 days
[8]
  MST: 5 days
[7]
  MST: 5 days
[9]
  MST: 5 days

## [Cl-].[Cl-].c1cc([C+]2NCCCN2)ccc1-c1ccc(-c2ccc([C+]3NCCCN3)cc2)s1
[2]
  MST: 3 days
Plasmodium berghei
  Activity: inactive
[3]
  MST: 4 days
[4]
  MST: 4 days
[6]
  MST: 2 days
[8]
  MST: 5 days
[7]
  MST: 4 days
[9]
  MST: 5 days

## Cn1c(-c2ccc([C+]3NCCCN3)cc2)ccc1-c1ccc([C+]2NCCCN2)cc1.[Cl-].[Cl-]
Mus musculus [10]
  Activity: Toxic
[2]
  MST: 3 days
Mus musculus [11]
  Activity: Toxic
Plasmodium berghei
  Activity: inactive
[3]
  MST: 3 days
[4]
  MST: 5 days
[6]
  MST: 2 days
[7]
  MST: 5 days

## N=C(N)c1ccc(/C=C/c2ccc(C(=N)N)cc2O)cc1 [HYDROXYSTILBAMIDINE]
[1]
  MST: 5 days
[2]
  MST: 5 days
[3]
  MST: 5 days
[4]
  MST: 5 days
[5]
  MST: 5 days
[6]
  MST: 5 days
[8]
  MST: 5 days
[7]
  MST: 5 days
[9]
  MST: 5 days

## N=C(N)c1ccc(-c2ccc(-c3ccc(C(=N)N)cc3)o2)cc1 [FURAMIDINE]
[1]
  MST: 5 days
[2]
  MST: 5 days
[3]
  MST: 5 days
[4]
  MST: 5 days
[5]
  MST: 4 days
[6]
  MST: 5 days
[8]
  MST: 5 days
[7]
  MST: 5 days
[9]
  MST: 5 days

## CC1CN[C+](c2ccc(-c3ccc(-c4ccc([C+]5NCC(C)N5)cc4)s3)cc2)N1.[Cl-].[Cl-] (stereo not drawn)
[12]
  MST: 3 days
Plasmodium berghei
  Activity: inactive
[3]
  MST: 2 days
[13]
  MST: 1.2 days
[14]
  MST: 1 days
[8]
  MST: 4 days
[9]
  MST: 4 days

## [Cl-].[Cl-].c1cc([C+]2NCCN2)ccc1-c1ccc(-c2ccc([C+]3NCCN3)cc2)s1
Plasmodium berghei
  Activity: inactive
[8]
  MST: 3 days
[9]
  MST: 2 days
[15]
  MST: 1.6 days

## Cn1c(-c2ccc([C+]3NCCN3)cc2)ccc1-c1ccc([C+]2NCCN2)cc1.[Cl-].[Cl-]
[2]
  MST: 3 days
Plasmodium berghei
  Activity: inactive
[3]
  MST: 5 days
[4]
  MST: 4 days
[6]
  MST: 2 days
[7]
  MST: 4 days

## N=C(N)c1ccc(OCCCCCOc2ccc(C(=N)N)cc2)cc1 [PENTAMIDINE]
[1]
  MST: 5 days
[2]
  MST: 5 days
[3]
  MST: 5 days
[4]
  MST: 5 days
[5]
  MST: 4 days
[6]
  MST: 5 days
[8]
  MST: 5 days
[7]
  MST: 5 days
[9]
  MST: 5 days

## Cn1c(-c2ccc([C+](N)N)cc2)ccc1-c1ccc([C+](N)N)cc1.[Cl-].[Cl-]
[1]
  MST: 4 days
[2]
  MST: 5 days
Plasmodium berghei
  Activity: inactive
[3]
  MST: 5 days
[4]
  MST: 5 days
[5]
  MST: 2 days
[6]
  MST: 5 days
[7]
  MST: 5 days
[9]
  MST: 5 days

## CC1CN[C+](c2ccc(-c3ccc(-c4ccc([C+]5NCC(C)N5)cc4)n3C)cc2)N1.[Cl-].[Cl-] (stereo not drawn)
[2]
  MST: 3 days
Plasmodium berghei
  Activity: inactive
[3]
  MST: 5 days
[4]
  MST: 4 days
[8]
  MST: 5 days
[7]
  MST: 5 days
[9]
  MST: 5 days

From ChEMBL document CHEMBL3272241, “Synthesis and antiprotozoal activity of 2,5-bis(4-guanylphenyl)thiophenes and -pyrroles” (J Med Chem, 1977)
